Laboratory results: PubChem BioAssay (NCI)
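1) Cells in 96-well plates. 2) Compound, 48 h, 5 concentrations. 3) Linear interpolation between surrounding doses. 4) Unreached endpoint = highest concentration. GI50: concentration for 50% inhibition of growth. TGI denotes the concentration required for complete inhibition of growth.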

Tests used:
Experiment in all cases: DTP human tumour cell line panel, 48 h
SK-OV-3 ovarian = tested on: SK-OV-3 ovarian
HT29 colon = tested on: HT29 colon
A498 renal = tested on: A498 renal
TK-10 renal = tested on: TK-10 renal
SK-MEL-28 melanoma = tested on: SK-MEL-28 melanoma
NCI/ADR-RES ovarian = tested on: NCI/ADR-RES ovarian
RPMI-8226 leukemia = tested on: RPMI-8226 leukemia
SNB-19 CNS = tested on: SNB-19 CNS
UACC-257 melanoma = tested on: UACC-257 melanoma
HOP-92 NSCLC = tested on: HOP-92 NSCLC

Row | SMILES | GI50 (SK-OV-3 ovarian) [µM] | TGI (SK-OV-3 ovarian) [µM] | GI50 (HT29 colon) [µM] | TGI (HT29 colon) [µM] | GI50 (A498 renal) [µM] | TGI (A498 renal) [µM] | GI50 (TK-10 renal) [µM] | TGI (TK-10 renal) [µM] | GI50 (SK-MEL-28 melanoma) [µM] | TGI (SK-MEL-28 melanoma) [µM] | GI50 (NCI/ADR-RES ovarian) [µM] | TGI (NCI/ADR-RES ovarian) [µM] | GI50 (RPMI-8226 leukemia) [µM] | TGI (RPMI-8226 leukemia) [µM] | GI50 (SNB-19 CNS) [µM] | TGI (SNB-19 CNS) [µM] | GI50 (UACC-257 melanoma) [µM] | TGI (UACC-257 melanoma) [µM] | GI50 (HOP-92 NSCLC) [µM] | TGI (HOP-92 NSCLC) [µM]
1 | Cn1cc(C2=C(c3cn(C)c4c(N)cccc34)C(=O)NC2=O)c2ccccc21 | 1.22 | > 20.1 | 1.25 | 12.8 | 0.895 | 4.29 | 4.28 | 18.3 | 3.43 | > 20.6 | 2.02 | > 25 | 2.44 | 12.5 | 4.34 | > 25 | 4.76 | > 25 |  | 
2 | Cn1cc(C2=C(c3cn(CCCN=C(N)N)c4ccccc34)C(=O)NC2=O)c2ccccc21 | > 25 | > 25 | > 25 | > 25 | > 25 | > 25 | > 25 | > 25 | > 25 | > 25 | > 25 | > 25 | > 25 | > 25 | > 25 | > 25 | > 25 | > 25 |  | 
3 | COc1cc2c(/C=C3/C(=O)Nc4cccc(Cl)c43)c(Cl)n(Cc3ccccc3)c2cc1C | 7.24 | > 74.8 | 4.99 | > 100 | 0.528 | 9.03 | 10.4 | > 76.2 | 4.98 | 43.7 | 2.76 | 12 | 4.21 | > 23.6 | 9.07 | > 100 | 10.4 | > 78.8 | 44.9 | > 100
4 | COc1ccc(C2CC(=O)c3c(O)c(OC)c(OC)c(OC)c3O2)c(O)c1 (stereo not given) | 0.308 | 24.8 | 2.64 | > 100 | 0.126 | 0.984 | 4.96 | 49 | 10.5 | 25.6 | 0.0565 | 20.6 | 0.372 | 18.4 | 0.384 | > 100 |  |  | 0.0574 | 13.9
5 | COc1cc([C@@H]2c3cc4c(cc3C(O[C@@H]3O[C@@H]5CO[C@@H](c6cccs6)OC5[C@H](O)[C@H]3O)C3COC(=O)[C@@H]32)OCO4)cc(OC)c1O (stereo not given in full) | 0.102 | 0.81 | 0.123 | 1.1 | 0.0635 | 0.551 | 0.118 | 0.799 | 0.171 | 0.953 | 5.22 | 50 | 0.0298 | 1.28 | 0.0278 | 17 | 0.154 | 2.11 | 0.0461 | 1.25
6 | NC(N)=NC(N)=Nc1cc2ccccc2c2ccccc12 | 11.4 | 24 | 7.83 | 23.6 | 1.39 | 10.1 | 6.08 | 20.5 | 13.2 | 26.2 | 17 | 43.2 | 4.49 | 26 | 7.69 | 21.6 | 10.5 | 22.9 | 1.31 | 11
7 | Cc1c2c(nn1-c1ccc(S(=O)(=O)/N=C3\SCC(=O)N3C(=O)c3ccccc3)cc1)-c1ccccc1CC2 |  |  | 63.5 | > 100 |  |  | 98 | > 100 | 52.5 | > 100 | > 100 | > 100 |  |  |  |  | 92.5 | > 100 | 30.9 | 66.2
8 | COc1cccc(N=Cc2c3ccccc3c(=O)n3c2oc2ccccc23)c1 | 73.1 | > 100 | 32.7 | > 100 | 17.2 | 61.4 | 2.95 | 7.69 | > 100 | > 100 | 11.6 | 64.3 | 6.54 | 42.6 | 52.2 | > 100 |  |  | 1.68 | 30.7
9 | O=C(C[C@@H](C(=O)NCc1cccc(C(F)(F)F)c1)N1C(=O)[C@@H](N2C(=O)OC[C@@H]2c2ccccc2)[C@H]1/C=C/c1ccccc1)NC1CCN(Cc2ccccc2)CC1 | 15.3 | 28.6 | 1.67 | 3.53 | 2.19 | 11.9 | 10.2 | 23.4 | 2.19 | 5.8 | > 100 | > 100 | 2.22 | 5.31 | 9.33 | 36.5 | 17.2 | 33.8 |  | 
10 | O=[N+]([O-])c1ccc2nnnn2c1 |  | > 100 |  | > 100 |  |  |  | > 100 |  | 61.8 |  | > 100 |  |  |  | > 100 |  | > 100 |  | > 100
11 | COc1cc([N+](=O)[O-])ccc1NC(=O)C(F)(F)F |  | > 100 |  | > 100 |  | > 100 |  | > 100 |  | > 100 |  | > 100 |  | > 100 |  | > 100 |  | > 100 |  | 
12 | Cn1cc(-c2csc(-c3cccc(F)c3)n2)c2cccnc21 | 24.9 | 62.2 | 14.2 | 27.9 |  |  | 17.9 | 38.1 | 17.6 | 32.8 | 20.3 | 50.2 | 25.2 | > 100 | 20.1 | 54.4 | 21.8 | 42.6 | 1.04 | 18.6
13 | Cc1cc(C)cc(Nc2cc(C)nc3nc(C(F)(F)F)nn23)c1 | 81.5 | > 100 | > 100 | > 100 | 29 | > 100 | > 100 | > 100 | > 100 | > 100 | > 100 | > 100 | > 100 | > 100 | > 100 | > 100 |  |  | 26.2 | 97.9
14 | COc1cc2c3c(n(CCCCl)c(=O)c2cc1OC)-c1ccccc1C3=O | > 100 | > 100 |  |  |  |  | 19.6 | 68.6 |  |  | 6.36 | > 100 | 25.4 | > 100 | > 100 | > 100 | 10.2 | > 100 | 78.8 | > 100
15 | COc1cccc(NCc2nnc(Nc3ccc(Cl)cc3)c3ccccc23)c1 | 1.13 | 8.19 | 0.34 | 3.62 | 1.27 | 4.42 |  |  | 2.62 | 6.17 | 2.55 | 25 | 1.48 | 7.51 | 3.5 | 13 | 2.04 | 5.28 | 0.329 | 2.91
16 | CC(C)(C)OC(=O)N(CCCN(CCn1c2c(c3ccccc3c1=O)C(=O)c1ccccc1-2)C(=O)OC(C)(C)C)CCn1c2c(c3ccccc3c1=O)C(=O)c1ccccc1-2 | > 50 | > 50 | > 50 | > 50 | > 50 | > 50 | > 50 | > 50 | > 50 | > 50 | > 50 | > 50 | 7.21 | 48.6 | > 50 | > 50 | > 50 | > 50 |  | 
17 | CCCCCCCCCCC(O)C1CCC(C2CCC(C(O)CCCCC(O)CCCCCC(O)CC3=CC(C)OC3=O)O2)O1 (stereo not given) |  | > 25 |  |  | 5.27 | > 25 | 1.98 | > 25 | 4.28 | > 25 | > 25 | > 25 | 2 | > 25 | 1.41 | > 25 | 0.452 | > 25 | 3.87 | > 25
18 | COc1cc(C(=O)O[C@H](C(N)=O)[C@]2(C)CO2)c2ccccc2c1 | 14.3 | 28 | 13.7 | 27.9 |  |  | 19.7 | 37.5 | 15.6 | 31.5 | 12.3 | 30.3 | 22.8 | > 100 | 15.8 | 30.3 | 31.8 | > 100 | 20.3 | 50.6
19 | O=C(O)c1cc(N=Nc2ccc([As](=O)(O)O)cc2)ccc1O |  | > 100 |  | > 100 |  | > 100 |  | > 100 |  | > 100 |  | > 100 |  | > 100 |  | > 100 |  | > 100 |  | 
20 | CCCCC/C=C/C/C=C/CCCCCCCC1=NC(C)(C)CN1C(C)C | 3.07 | 12.6 | 1.38 | 2.74 | 2.35 | 15.5 | 1.67 | 3.04 | 1.7 | 3.07 | 2.32 | 7.44 |  |  | 1.59 | 3 | 1.72 | 3.2 | 1.31 | 3.37
21 | COc1ccc(-n2c(SCc3cc(OC)c(OC)c(OC)c3)nc3ccc(C)cc3c2=O)cc1 | 9.74 | > 100 | 4.3 | > 100 | 1.95 | 16.9 |  |  | 25.9 | > 100 | 3.71 | > 100 | 2.55 | 50.9 | > 100 | > 100 | 64.4 | > 100 | 1.75 | > 100
